Test results from patent US6417211B1, “Isothiazolone concentrates” (Rohm and Haas Company, priority 1999, dated 2002).
Marks after values point to notes of the source that are not given here.

What was measured:
[1] = Chemical stability of MI solutions on storage (HPLC, % active ingredient remaining); assay type: physicochemical; conditions: ± 1-2%
[2] = Physical stability of MI solutions on storage (homogeneity, clarity, crystallization, precipitation, phase separation); assay type: physicochemical
Procedure: By “physically stable” we mean that the compositions are homogeneous and fluid at temperatures of 20 to 25° C. for at least 24 hours. Preferably the compositions are physically stable at 20° C. and below for at least 3 days, more preferably for at least 2 weeks, and most preferably for at least 4 weeks. In addition, it is desirable that the compositions retain their physical stability for similar time periods at temperatures of 15° C. and below, and preferably at 5° C. and below.
Samples of technical grade 2-methyl-3-isothiazolone (MI) were used to prepare solutions of the NHITA in various solvents at different concentrations. […] Solutions were prepared by adding a weighed amount of molten MI (melted at about 55° C.) to a weighed amount of deionized water (or a solvent or a solvent-water mixture) in a 20-milliliter (ml) vial; the mixture was swirled and allowed to cool to room temperature. The prepared samples were allowed to stand at room temperature (20-25° C.) for 24 hours and then subjected to storage at cooler temperatures (5° C. and −17° C.) for at least 72 hours; observations were made at each condition to determine physical stability (homogeneity, clarity, crystallization, precipitation, phase separation). The samples were considered physically stable if no crystallization, phase separation or precipitation occurred; concentrations (or concentration ranges) at which the compositions were unstable are indicated by ** superscript, otherwise concentrations (ranges) listed were stable; results are summarized in Table I (concentrations are weight % MI).

[3] = solvent DEC (diethyl carbonate), 20-25° C., 24 hours
[4] = solvent DME (1,2-dimethoxyethane), 20-25° C., 24 hours
[5] = solvent DMSO, 20-25° C., 24 hours
[6] = solvent IPA (isopropanol), 5° C., at least 72 hours
[7] = solvent MeOH, 5° C., at least 72 hours
[8] = solvent PC (propylene carbonate), 20-25° C., 24 hours
[9] = solvent PG (propylene glycol), 5° C., at least 72 hours
[10] = solvent Water, 5° C., at least 72 hours
[11] = solvent Water, 20-25° C., 24 hours
[12] = solvent Water, −17° C., at least 72 hours

For `Cn1sccc1=O` [MI, 2-Methyl-3-isothiazolone], the “% Active Ingredient (MI) Remaining” value ([1]; initial MI concentration 68, PG, 40° C./11 days) was 100%, the “% Active Ingredient (MI) Remaining” value ([1]; initial MI concentration 78, MeOH, 40° C./11 days) was 104% and the “% Active Ingredient (MI) Remaining” value ([1]; initial MI concentration 85.8, Water, 55° C./4 weeks) was 97.1%. For the same molecule, the “% Active Ingredient (MI) Remaining” value ([1]; initial MI concentration 88, 50/50 MeOH/Water, 40° C./11 days) was 101%, the “time solution remained stable” value ([2]; 80% MI solution in water, 5° C.) was “at least 4 months” and the “time solution remained stable” value ([2]; 90% MI solution in water, 5° C.) was “at least 4 months”. For the same molecule, the “MI concentration physically stable” value ([2]; solvent 50/50 MeOH/Water, 5° C., at least 72 hours) was 88 weight %, the “MI concentration physically stable” value ([2]; solvent 50/50 MeOH/Water, 20-25° C., 24 hours) was 88 weight % and the “MI concentration physically unstable (crystal formation or insoluble)” value (“MI concentration physically unstable” below) ([2]; solvent 50/50 MeOH/Water, −17° C., at least 72 hours) was 88** weight %. The “MI concentration physically unstable” value ([2]; solvent BEE (2-(2-butoxyethoxyl)ethanol), 5° C., at least 72 hours) was 68-88** weight %, the “MI concentration physically stable” value ([2]; solvent BEE (2-(2-butoxyethoxyl)ethanol), 20-25° C., 24 hours) was 68-88 weight % and the “MI concentration physically unstable” value ([2]; solvent DEC (diethyl carbonate), 5° C., at least 72 hours) was 70** weight %. The “MI concentration physically stable” value [2, 3] was 70 weight %, the “MI concentration physically unstable” value [2, 3] was 80-90 weight % and the “MI concentration physically unstable” value ([2]; solvent DME (1,2-dimethoxyethane), 5° C., at least 72 hours) was 70-80** weight %. The “MI concentration physically stable” value [2, 4] was 70-80 weight %, the “MI concentration physically unstable” value [2, 4] was 90 weight % and the “MI concentration physically unstable” value ([2]; solvent DMSO, 5° C., at least 72 hours) was 70-80** weight %. For the same molecule, the “MI concentration physically stable” value [2, 5] was 70-80 weight %, the “MI concentration physically unstable” value [2, 5] was 90 weight % and the “MI concentration physically unstable” value ([2]; solvent DPG (dipropylene glycol), 5° C., at least 72 hours) was 75-90** weight %. The “MI concentration physically stable” value ([2]; solvent DPG (dipropylene glycol), 20-25° C., 24 hours) was 75-90 weight %, the “MI concentration physically stable” value [2, 6] was 78 weight % and the “MI concentration physically unstable” value [2, 6] was 88 weight %. For the same molecule, the “MI concentration physically stable” value ([2]; solvent IPA (isopropanol), 20-25° C., 24 hours) was 78-88 weight %, the “MI concentration physically unstable” value ([2]; solvent IPA (isopropanol), −17° C., at least 72 hours) was 78** weight % and the “MI concentration physically stable” value [2, 7] was 78 weight %. The “MI concentration physically unstable” value [2, 7] was 88 weight %, the “MI concentration physically stable” value ([2]; solvent MeOH, 20-25° C., 24 hours) was 78-88 weight % and the “MI concentration physically stable” value ([2]; solvent MeOH, −17° C., at least 72 hours) was 78 weight %. The “MI concentration physically unstable” value ([2]; solvent PC (propylene carbonate), 5° C., at least 72 hours) was 69** weight %, the “MI concentration physically stable” value [2, 8] was 69 weight % and the “MI concentration physically unstable” value [2, 8] was 80-90 weight %. The “MI concentration physically stable” value [2, 9] was 68 weight %, the “MI concentration physically unstable” value [2, 9] was 78-88 weight % and the “MI concentration physically stable” value ([2]; solvent PG (propylene glycol), 20-25° C., 24 hours) was 68-88 weight %. The “MI concentration physically stable” value ([2]; solvent PG (propylene glycol), −17° C., at least 72 hours) was 68 weight %, the “MI concentration physically stable” value [2, 10] was 60-89.5 weight % and the “MI concentration physically unstable” value [2, 10] was 90.5 weight %. The “MI concentration physically stable” value [2, 11] was 60-94.4 weight %, the “MI concentration physically unstable” value [2, 11] was 95.4 weight % and the “MI concentration physically stable” value [2, 12] was 70-77 weight %. The “MI concentration physically unstable” value [2, 12] was 88 weight %, the “MI concentration physically stable” value ([2]; solvent φCH2OH (benzyl alcohol), 5° C., at least 72 hours) was 60 weight % and the “MI concentration physically stable” value ([2]; solvent φCH2OH (benzyl alcohol), 20-25° C., 24 hours) was 60 weight %. For the same molecule, the “MI concentration physically unstable” value ([2]; solvent φCH2OH (benzyl alcohol), −17° C., at least 72 hours) was 60** weight %, the “MI concentration physically stable” value ([2]; solvent φOCH2CH2OH (phenoxyethanol), 5° C., at least 72 hours) was 60 weight % and the “MI concentration physically stable” value ([2]; solvent φOCH2CH2OH (phenoxyethanol), 20-25° C., 24 hours) was 60 weight %. The “MI concentration physically unstable” value ([2]; solvent φOCH2CH2OH (phenoxyethanol), −17° C., at least 72 hours) was 60** weight %.
